How the values were obtained:
[1] = target: T1, human ACSS2 protein (Homo sapiens, UniProt Q9NR19); test: ACSS2 cell-free activity assay (pyrophosphatase-coupled, Biomol green); conditions: 10 nM human ACSS2, 90 minutes at 37 C, absorbance at 620 nm; read-out: ACSS2 Biochemical IC50
T1 construct: purchased OriGene Technologies, Inc
How it was run: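 10 nM human ACSS2 incubated 90 min at 37 C with compound, 300 μM ATP, 10 μM CoA, 5 mM NaAc in pH 7.5 Hepes buffer with 0.5 U/ml pyrophosphatase. Released phosphate detected with Biomol Green at 620 nm; IC50 by non-linear regression constrained to 0% and 100%.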

[2] = target: T2, ACSS2 in MDA-MB-468 cells (Homo sapiens, UniProt Q9NR19); test: Cellular fatty-acid IC50: 13C-acetate incorporation into fatty acids (palmitate), LC-MS; format: cell-based; conditions: hypoxic conditions (1% O2), 75% charcoal stripped serum, 5 hours, 13C-acetate into palmitate, read-out: Cellular Fatty-acid IC50 High Serum MDA468
T2 construct: endogenous in cells; host or cells: MDA-MB-468 cells, hypoxia (1% O2)
T2 sequence (Q9NR19 whole entry): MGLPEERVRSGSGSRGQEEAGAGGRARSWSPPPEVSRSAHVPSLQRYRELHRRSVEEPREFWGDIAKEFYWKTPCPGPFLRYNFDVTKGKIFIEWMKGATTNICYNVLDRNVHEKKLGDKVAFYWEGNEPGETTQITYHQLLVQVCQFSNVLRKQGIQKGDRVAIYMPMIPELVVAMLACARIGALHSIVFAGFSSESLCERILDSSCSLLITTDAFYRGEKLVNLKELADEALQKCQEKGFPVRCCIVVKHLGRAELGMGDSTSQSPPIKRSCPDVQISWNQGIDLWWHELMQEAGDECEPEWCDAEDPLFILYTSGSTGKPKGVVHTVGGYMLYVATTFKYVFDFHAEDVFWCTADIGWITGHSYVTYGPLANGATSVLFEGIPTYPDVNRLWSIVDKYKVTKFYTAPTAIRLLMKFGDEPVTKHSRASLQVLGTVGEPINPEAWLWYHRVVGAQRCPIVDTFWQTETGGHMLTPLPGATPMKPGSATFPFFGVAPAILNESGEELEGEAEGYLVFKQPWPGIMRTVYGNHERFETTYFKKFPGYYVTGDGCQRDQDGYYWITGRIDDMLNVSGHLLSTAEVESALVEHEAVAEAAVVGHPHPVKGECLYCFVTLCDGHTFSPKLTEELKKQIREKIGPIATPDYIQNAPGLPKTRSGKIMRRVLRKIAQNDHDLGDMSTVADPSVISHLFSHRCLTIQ
Experimental: Cellular Fatty-Acid IC50 Determination:
The cellular activity of ACSS2 was measured in MDA-MB-468 cells under hypoxic conditions by tracing the incorporation of labelled carbons from ^13C-acetate into newly synthesized fatty acids. The assay was performed using 75% charcoal stripped serum (high serum conditions).
MDA-MB-468 cells were seeded in 12-well plates (0.35×10^6 cells per well) in plating medium (Dulbecco's Modified Eagle Medium containing 25 mM D-glucose, 1 mM sodium pyruvate, 10% v/v fetal bovine serum, and 2 mM glutamine) and incubated for 24 hours under hypoxic conditions (1% O2).
The next day, tracing medium containing DMEM (01-057-1A) containing 75% charcoal stripped serum (Biological industries 04-201-1A), 3.5 μg/mL Biotin (Sigma-Aldrich B4639), 1 mM Pyruvate, 5.5 mM Glucose, 0.65 mM Glutamine and 0.5 mM ^13C-Acetate (Sigma-Aldrich #282014) with serial dilutions of the compounds in the range of 0.000512-1000 nM were prepared. The plating medium was replaced with 1 mL tracing medium plus compounds and the cells were incubated for 5 hours under hypoxic conditions (1% O2). Plating medium in control wells (without cells or without compounds) was replaced with 1 mL tracing medium containing 0.01% v/v DMSO.
The level of ^13C-acetate incorporation into fatty acids (palmitate) was measured by LC-MS analysis and IC50 as described below:
Sample Preparation for LC-MS
• a) Cells were washed twice with cold phosphate buffered saline (PBS), scraped into 0.5 mL EDTA pH 8.0, and transferred into 1.1 mL V-shaped HPLC glass tubes. • b) The cell suspensions were centrifuged for 5 minutes at 400×g, 4° C. and the supernatants were removed. • c) Cell pellets were frozen at −80° C.
• d) Cell pellets were resuspended in 0.2 mL of 80% v/v ethanol in water containing 0.02 M NaOH in 1.1 ml glass (v-bottom) HPLC vials. • e) The vials were closed tight and incubated at 66° C. for 60 minutes. • f) Acetonitrile containing 2% v/v formic acid (150 μL) was added to each vial and the mixtures were transferred to Eppendorf tubes for centrifugation at 17 000×g for 20 minutes. • g) Supernatants were transferred to LC-MS vials.
The relative palmitate concentration was measured by LC-MS in reconstructed selected ion monitoring (RSIM) mode and negative ion mode. Samples were analyzed on a Phenomenex Kinetex 2.6 μm XB-C18 150×2.1 mm column at 45° C. (0.4 mL/minute flow rate) using: • a) A gradient from 15% A/85% C to 100% C for 0 to 2 minutes (A: water containing 5% v/v acetonitrile, 10 mM ammonium acetate, and 10 mM acetic acid; C: a mixture of 50% v/v acetonitrile and 50% v/v methanol). • b) Isocratic flow (100% C) for 2 to 5 minutes. • c) Equilibration in isocratic conditions (15% A/85% C) for 5 to 8 minutes.
Palmitate was eluted at approximately 3.4 minutes.
The percent inhibition was calculated relative to the sample without compound and after background deduction. IC50 values were calculated using non-linear regression curve fit analysis with 0% and 100% constraints (CDD Vault, Collaborative Drug Discovery, Inc. or GraphPad Prism).
The inhibitory activities of each compound against ACSS2 in MDA-MB-468 cells under high serum conditions, as determined by ^13C-acetate incorporation into fatty acids (palmitate), are presented in Table 2.

[3] = target: T3, human ACSS1 protein (Homo sapiens, UniProt Q9NUB1); test: ACSS1 cell-free activity assay (pyrophosphatase-coupled, Biomol green); format: biochemical; conditions: 5 nM human ACSS1, 30 minutes at room temperature, absorbance at 620 nm; for IC50: read-out: ACSS1 Biochemical IC50
T3 construct: purchased MyBioSource
T3 sequence (Q9NUB1 38-689): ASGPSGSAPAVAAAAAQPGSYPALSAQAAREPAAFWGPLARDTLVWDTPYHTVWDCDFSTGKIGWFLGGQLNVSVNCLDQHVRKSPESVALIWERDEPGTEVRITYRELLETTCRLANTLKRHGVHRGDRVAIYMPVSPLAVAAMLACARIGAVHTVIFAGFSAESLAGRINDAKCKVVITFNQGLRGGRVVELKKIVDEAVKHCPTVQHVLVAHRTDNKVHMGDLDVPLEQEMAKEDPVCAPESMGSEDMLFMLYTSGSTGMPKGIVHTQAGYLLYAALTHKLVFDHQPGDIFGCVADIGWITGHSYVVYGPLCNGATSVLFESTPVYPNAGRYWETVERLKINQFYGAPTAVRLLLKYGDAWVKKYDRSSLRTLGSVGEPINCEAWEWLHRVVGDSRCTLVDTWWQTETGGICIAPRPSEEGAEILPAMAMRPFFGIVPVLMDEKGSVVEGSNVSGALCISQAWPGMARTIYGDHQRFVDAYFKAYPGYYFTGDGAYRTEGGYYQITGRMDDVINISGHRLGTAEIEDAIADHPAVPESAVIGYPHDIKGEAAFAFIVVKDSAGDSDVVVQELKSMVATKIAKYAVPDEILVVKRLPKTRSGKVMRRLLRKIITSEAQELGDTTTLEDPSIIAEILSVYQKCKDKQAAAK
How it was run: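 5 nM human ACSS1 incubated 30 min at RT with compound in pH 7.5 Hepes buffer with 15 μM CoA, 5 mM acetate, 300 μM ATP, 2 mM MgCl2 and pyrophosphatase. Released phosphate detected with Biomol Green (30 min), absorbance 620 nm. IC50 from constrained non-linear regression.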

T1 sequence (Q9NR19 whole entry): as the sequence (Q9NR19 whole entry) above

Structure (SMILES) | IC50 [1] [µM] | IC50 [2] [µM] | ACSS1 Biochemical IC50 (nM) [3] | IC50 [3] [µM]
CNc1cc(-c2c(C)cccc2C)cc(-c2[nH]c(C)c(C(=O)Nc3cccc(C(F)(F)C4CC4)c3)[n+]2[O-])c1 [Compound 147, 4-((3-(cyclopropyldifluoromethyl)phenyl)carbamoyl)-2-(2′,6′-dimethyl-5-(methylamino)-[1,1′-biphenyl]-3-yl)-5-methyl-1H-imidazole 3-oxide] | 0.001 to 0.03 | 0.02 to 0.05 | Inactive | 
CCC(F)(F)c1cccc(NC(=O)c2c(C)[nH]c(-c3cc(CCN(C)C)c(OC)c(-c4c(C)cccc4C)c3)[n+]2[O-])c1 [Compound 169, 4-((3-(1,1-difluoropropyl)phenyl)carbamoyl)-2-(5-(2-(dimethylamino)ethyl)-6-methoxy-2′,6′-dimethyl-[1,1′-biphenyl]-3-yl)-5-methyl-1H-imidazole 3-oxide] | < 0.001 | < 0.02 | Inactive | 
Cc1[nH]c(-c2ccc(OCCCN3CCCC3)cc2)[n+]([O-])c1C(=O)Nc1cccc(C(F)(F)C2CC2)c1 [Compound 174, 4-((3-(cyclopropyldifluoromethyl)phenyl)carbamoyl)-5-methyl-2-(4-(3-(pyrrolidin-1-yl)propoxy)phenyl)-1H-imidazole 3-oxide] | 0.001 to 0.03 | > 0.05 | Inactive | 
Cc1cccc(C)c1-c1cc(CN(C)C)cc(-c2[nH]c(C)c(C(=O)Nc3cccc(C(F)(F)C4CC4)c3)[n+]2[O-])c1 [Compound 175, 4-((3-(cyclopropyldifluoromethyl)phenyl)carbamoyl)-2-(5-((dimethylamino)methyl)-2′,6′-dimethyl-[1,1′-biphenyl]-3-yl)-5-methyl-1H-imidazole 3-oxide] | < 0.001 | < 0.02 | Inactive | 
CNC(=O)c1cccc(NC(=O)c2c(C)[nH]c(-c3cccc(-c4c(C)cccc4C)c3)[n+]2[O-])c1 [Compound 176, 2-(2′,6′-dimethyl-[1,1′-biphenyl]-3-yl)-5-methyl-4-((3-(methylcarbamoyl)phenyl)carbamoyl)-1H-imidazole 3-oxide] | < 0.001 | < 0.02 |  | > 0.03
CNC(=O)c1cccc(NC(=O)c2c(C)[nH]c(-c3ccnc(-c4c(C)cccc4C)c3)[n+]2[O-])c1 [Compound 178, 2-(2-(2,6-dimethylphenyl)pyridin-4-yl)-5-methyl-4-((3-(methylcarbamoyl)phenyl)carbamoyl)-1H-imidazole 3-oxide] | < 0.001 | < 0.02 |  | > 0.03
CNC(=O)c1cccc(NC(=O)c2c(C)[nH]c(-c3cc(N)cc(-c4c(C)cccc4C)c3)[n+]2[O-])c1 [Compound 180, 2-(5-amino-2′,6′-dimethyl-[1,1′-biphenyl]-3-yl)-5-methyl-4-((3-(methylcarbamoyl)phenyl)carbamoyl)-1H-imidazole 3-oxide] | < 0.001 | < 0.02 |  | > 0.03
CNC(=O)c1cccc(NC(=O)c2c(C)[nH]c(-c3cc(NC)cc(-c4c(C)cccc4C)c3)[n+]2[O-])c1 [Compound 181, 2-(2′,6′-dimethyl-5-(methylamino)-[1,1′-biphenyl]-3-yl)-5-methyl-4-((3-(methylcarbamoyl)phenyl)carbamoyl)-1H-imidazole 3-oxide] | < 0.001 | < 0.02 |  | > 0.03

More lines, now with the values ahead:

IC50 [1] [µM] | IC50 [2] [µM] | ACSS1 Biochemical IC50 (nM) [3] | IC50 [3] [µM] | Structure (SMILES)
< 0.001 | < 0.02 | Inactive |  | CCC(F)(F)c1cccc(NC(=O)c2c(C)[nH]c(-c3ccc(OC)c(-c4c(C)cccc4C)n3)[n+]2[O-])c1 [Compound 149, 4-((3-(1,1-difluoropropyl)phenyl)carbamoyl)-2-(6-(2,6-dimethylphenyl)-5-methoxypyridin-2-yl)-5-methyl-1H-imidazole 3-oxide]
< 0.001 | > 0.05 | Inactive |  | CCC(F)(F)c1cccc(NC(=O)c2c(C)[nH]c(-c3cc(-c4c(C)cccc4C)c(OC)cn3)[n+]2[O-])c1 [Compound 157, 4-((3-(1,1-difluoropropyl)phenyl)carbamoyl)-2-(4-(2,6-dimethylphenyl)-5-methoxypyridin-2-yl)-5-methyl-1H-imidazole 3-oxide]
< 0.001 | < 0.02 | Inactive |  | COc1ccc(-c2[nH]c(C)c(C(=O)Nc3cccc(C(F)(F)F)c3)[n+]2[O-])cc1-c1c(C)cccc1C [Compound 171, 2-(6-methoxy-2′,6′-dimethyl-[1,1′-biphenyl]-3-yl)-5-methyl-4-((3-(trifluoromethyl)phenyl)carbamoyl)-1H-imidazole 3-oxide]
< 0.001 | < 0.02 | Inactive |  | COc1ccc(-c2[nH]c(C)c(C(=O)Nc3cccc(C(N)=O)c3)[n+]2[O-])cc1-c1c(C)cccc1C [Compound 172, 4-((3-carbamoylphenyl)carbamoyl)-2-(6-methoxy-2′,6′-dimethyl-[1,1′-biphenyl]-3-yl)-5-methyl-1H-imidazole 3-oxide]
< 0.001 | < 0.02 |  | > 0.03 | CNC(=O)c1cccc(NC(=O)c2c(C)[nH]c(-c3ccc(F)c(-c4c(C)cccc4C)c3)[n+]2[O-])c1 [Compound 177, 2-(6-fluoro-2′,6′-dimethyl-[1,1′-biphenyl]-3-yl)-5-methyl-4-((3-(methylcarbamoyl)phenyl)carbamoyl)-1H-imidazole 3-oxide]
0.001 to 0.03 | > 0.05 | Inactive |  | COc1ccc(-c2[nH]c(C)c(C(=O)Nc3cccc(S(=O)(=O)N(C)C)c3)[n+]2[O-])cc1-c1c(C)cccc1C [Compound 179, 4-((3-(N,N-dimethylsulfamoyl)phenyl)carbamoyl)-2-(6-methoxy-2′,6′-dimethyl-[1,1′-biphenyl]-3-yl)-5-methyl-1H-imidazole 3-oxide]

From US20230174507A1, “IMIDAZOLE 3-OXIDE DERIVATIVE BASED ACSS2 INHIBITORS AND METHODS OF USE THEREOF” (METABOMED LTD., priority 2020, published 2023)
